We go through 25 compounds from US10450292B2, “Inhibitors of bacterial RNA polymerase: arylpropanoyl, arylpropenoyl, and arylcyclopropanecarboxyl phloroglucinols” (Rutgers, The State University of New Jersey, priority 2015, dated 2019).

The structures appear in SMILES notation. ≈ marks a conversion by molar mass, not a printed value. Where only a bound is given, the exact number is not on record here.

Assay [1] concerns Enterococcus faecalis ATCC 19433. The experiment in a line: Inhibition of bacterial growth in culture, spiral gradient endpoint assay (MIC). The assay is classed as cell-based. The following applies: for MIC: Enterococcus faecalis, ATCC 19433 /, 16 h, read-out: MIC E. faecalis, Mueller-Hinton II agar, 16 h at 37° C. From the text:
J. Microbiol. Meths. […] Int. J. Exp. Clin. Chemother. […] Adv.

Assay [2] deals with Escherichia coli D21f2tolC. The experiment in a line: microbe, parasite or virus in culture. The settings on record: 16 h, read-out: MIC E. coli D21f2tolC, Mueller-Hinton II agar, 16 h at 37° C.
Assay [3] has as its system Staphylococcus aureus ATCC 12600. The assay is described as follows: Inhibition of bacterial growth in culture, spiral gradient endpoint assay (MIC). The settings on record: Staphylococcus aureus, ATCC12600, 16 h, read-out: MIC S. aureus 12600, Mueller-Hinton II agar, 16 h at 37° C.

Turning to `CCCC1=C(O)C(CCC)(CCC)C(=O)C(C(=O)C2CC2c2ccc(Oc3ccccc3)cc2)=C1O` (stereo not drawn) [Example 59, 3,5-dihydroxy-2-(2-(4-phenoxyphenyl)cyclopropanecarbonyl)-4,6,6-tripropylcyclohexa-2,4-dienone], the MIC in assay [1] is 3 µg/mL (≈ 6.14 µM); in assay [2], 1.1 µg/mL (≈ 2.25 µM); in assay [3] it was 0.7 µg/mL (≈ 1.43 µM).

`CCCC1(CCC)C(=O)C(C(=O)C2CC2c2ccc(Oc3ccccc3)cc2)=C(O)C=C1O` (stereo not drawn) [Example 60, 3,5-dihydroxy-2-(2-(4-phenoxyphenyl)cyclopropanecarbonyl)-6,6-dipropylcyclohexa-2,4-dien-1one]: the MIC is more than 40 µg/mL in assay [1], 3.9 µg/mL (≈ 8.73 µM) in assay [2] and 10 µg/mL (≈ 22.4 µM) in assay [3].

`CCC1=C(O)C(CC)(CC)C(=O)C(C(=O)CCc2ccc(Oc3ccc(F)cc3)cc2)=C1O` [Example 61, 4,6,6-triethyl-2-(3-(4-(4-fluorophenoxy)phenyl)propanoyl)-3,5-dihydroxycyclohexa-2,4-dienone]: the MIC in assay [1] was found to be 0.44 µg/mL (≈ 0.972 µM); in assay [2] it was 0.24 µg/mL (≈ 0.53 µM); in assay [3] it was 0.56 µg/mL (≈ 1.24 µM).

As for `CCC1=C(O)C(CC)(CC)C(=O)C(C(=O)C2CC2c2ccc(Oc3ccc(F)cc3)cc2)=C1O` (stereo not drawn) [Example 62, 4,6,6-triethyl-2-(2-(4-(4-fluorophenoxy)phenyl)cyclopropanecarbonyl)-3,5-dihydroxycyclohexa-2,4-dienone], the MIC in assay [1] is 0.51 µg/mL (≈ 1.1 µM); in assay [2] it was 0.28 µg/mL (≈ 0.603 µM); in assay [3], 0.4 µg/mL (≈ 0.861 µM).

Regarding `CCCC1(CCC)C(=O)C(C(=O)CCc2ccc(Oc3ccc(F)cc3)cc2)=C(O)C=C1O` [Example 63, 2-(3-(4-(4-fluorophenoxy)phenyl)propanoyl)-3,5-dihydroxy-6,6-dipropylcyclohexa-2,4-dienone], the values for the MIC in assay [1], in assay [2] and in assay [3] were more than 40 µg/mL, 2.4 µg/mL (≈ 5.3 µM) and 5.1 µg/mL (≈ 11.3 µM), respectively.

For the compound `CCCC1=C(O)C(CCC)(CCC)C(=O)C(C(=O)CCc2ccc(Oc3ccc(F)cc3)cc2)=C1O` [Example 64, 2-(3-(4-(4-fluorophenoxy)phenyl)propanoyl)-3,5-dihydroxy-4,6,6-tripropylcyclohexa-2,4-dienone], the results for the MIC in assay [1], in assay [2] and in assay [3] were 0.34 µg/mL (≈ 0.687 µM), 0.34 µg/mL (≈ 0.687 µM) and 0.26 µg/mL (≈ 0.526 µM), respectively.

As for `CCCC1(CCC)C(=O)C(C(=O)C2CC2c2ccc(Oc3ccc(F)cc3)cc2)=C(O)C=C1O` (stereo not drawn) [Example 65, 2-(2-(4-(4-fluorophenoxy)phenyl)cyclopropanecarbonyl)-3,5-dihydroxy-6,6-dipropylcyclohexa-2,4-dienone], the MIC was 1.9 µg/mL (≈ 4.09 µM) in assay [1], more than 40 µg/mL in assay [2] and 1.9 µg/mL (≈ 4.09 µM) in assay [3].

Take `CCCC1=C(O)C(CCC)(CCC)C(=O)C(C(=O)C2CC2c2ccc(Oc3ccc(F)cc3)cc2)=C1O` (stereo not drawn) [Example 66, 2-(2-(4-(4-fluorophenoxy)phenyl)cyclopropanecarbonyl)-3,5-dihydroxy-4,6,6-tripropylcyclohexa-2,4-dienone]: the MIC in assay [1] turned out to be 0.55 µg/mL (≈ 1.09 µM); in assay [2], 0.72 µg/mL (≈ 1.42 µM); in assay [3], 0.16 µg/mL (≈ 0.316 µM).

In the case of `CCCC1=C(O)C(CCC)(CCC)C(=O)C(C(=O)CCc2ccc(Oc3ccc(F)cc3)cc2C(F)(F)F)=C1O` [Example 68, 2-(3-(4-(4-fluorophenoxy)-2-(trifluoromethyl)phenyl)propanoyl)-3,5-dihydroxy-4,6,6-tripropylcyclohexa-2,4-dienone], the values for the MIC in assay [1], in assay [2] and in assay [3] were 1.3 µg/mL (≈ 2.31 µM), 1.5 µg/mL (≈ 2.67 µM) and 0.6 µg/mL (≈ 1.07 µM), respectively.

With `CCCC1=C(O)C(CCC)(CCC)C(=O)C(C(=O)CCc2ccc(Oc3ccc(F)cc3)cc2C)=C1O` [Example 69, 2-(3-(4-(4-fluorophenoxy)-2-methylphenyl)propanoyl)-3,5-dihydroxy-4,6,6-tripropylcyclohexa-2,4-dienone], the results for the MIC in assay [1], in assay [2] and in assay [3] were 1.4 µg/mL (≈ 2.75 µM), 1.1 µg/mL (≈ 2.16 µM) and 1.1 µg/mL (≈ 2.16 µM), respectively.

For the compound `CCCC1=C(O)C(CCC)(CCC)C(=O)C(C(=O)C2CC2c2ccc(Oc3ccc(F)cc3)cc2C(F)(F)F)=C1O` (stereo not drawn) [Example 70, 2-(2-(4-(4-fluorophenoxy)-2-(trifluoromethyl)phenyl)cyclopropanecarbonyl)-3,5-dihydroxy-4,6,6-tripropylcyclohexa-2,4-dienone], the MIC was found to be 1.2 µg/mL (≈ 2.09 µM) in assay [1], 8.2 µg/mL (≈ 14.3 µM) in assay [2] and 1.5 µg/mL (≈ 2.61 µM) in assay [3].

As to `CCCC1=C(O)C(CCC)(CCC)C(=O)C(C(=O)C2CC2c2ccc(Oc3ccc(F)cc3)cc2C)=C1O` (stereo not drawn) [Example 71, 2-(2-(4-(4-fluorophenoxy)-2-methylphenyl)cyclopropanecarbonyl)-3,5-dihydroxy-4,6,6-tripropylcyclohexa-2,4-dienone], the MIC turned out to be 2.1 µg/mL (≈ 4.03 µM) in assay [1], 2.3 µg/mL (≈ 4.42 µM) in assay [2] and 0.9 µg/mL (≈ 1.73 µM) in assay [3].

For the compound `CCC1=C(O)C(CC)(CC)C(=O)C(C(=O)C2CC2c2ccc(Oc3ccc(F)cc3)cc2C(F)(F)F)=C1O` (stereo not drawn) [Example 72, 4,6,6-triethyl-2-(2-(4-(4-fluorophenoxy)-2-(trifluoromethyl)phenyl)cyclopropanecarbonyl)-3,5-dihydroxycyclohexa-2,4-dienone], the MIC in assay [1] was more than 40 µg/mL; in assay [2], 1.6 µg/mL (≈ 3 µM); in assay [3], 6.5 µg/mL (≈ 12.2 µM).

As to `CCC1=C(O)C(CC)(CC)C(=O)C(C(=O)CCc2ccc(Oc3ccc(F)cc3)cc2C(F)(F)F)=C1O` [Example 73, 4,6,6-triethyl-2-(3-(4-(4-fluorophenoxy)-2-(trifluoromethyl)phenyl)propanoyl)-3,5-dihydroxycyclohexa-2,4-dienone], the MIC in assay [1] came out at 1.6 µg/mL (≈ 3.07 µM); in assay [2], 1.2 µg/mL (≈ 2.31 µM); in assay [3], 1.5 µg/mL (≈ 2.88 µM).

Take `CCC1=C(O)C(CC)(CC)C(=O)C(C(=O)CCc2ccc(Oc3ccc(F)cc3)cc2C)=C1O` [Example 74, 4,6,6-triethyl-2-(3-(4-(4-fluorophenoxy)-2-methylphenyl)propanoyl)-3,5-dihydroxycyclohexa-2,4-dienone]: the MIC in assay [1] came to 11 µg/mL (≈ 23.6 µM); in assay [2] it was 0.9 µg/mL (≈ 1.93 µM); in assay [3], 1.7 µg/mL (≈ 3.64 µM).

`CC1=C(O)C(C)(C)C(=O)C(C(=O)C2CC2c2ccc(Oc3ccc(F)cc3)cc2C)=C1O` (stereo not drawn) [Example 75, 2-(2-(4-(4-fluorophenoxy)-2-methylphenyl)cyclopropanecarbonyl)-3,5-dihydroxy-4,6,6-trimethylcyclohexa-2,4-dienone]: the MIC in assay [1] was more than 40 µg/mL; in assay [2], 5.1 µg/mL (≈ 11.7 µM); in assay [3], 17 µg/mL (≈ 38.9 µM).

Turning to `CC1=C(O)C(C)(C)C(=O)C(C(=O)C2CC2c2ccc(Cl)cc2C(F)(F)F)=C1O` (stereo not drawn) [Example 76, 2-(2-(4-chloro-2-(trifluoromethyl)phenyl)cyclopropanecarbonyl)-3,5-dihydroxy-4,6,6-trimethylcyclohexa-2,4-dienone], the MIC is more than 40 µg/mL in assay [1], 3.1 µg/mL (≈ 7.47 µM) in assay [2] and 12 µg/mL (≈ 28.9 µM) in assay [3].

Regarding `CC1=C(O)C(C)(C)C(=O)C(C(=O)C2CC2c2ccc(Cl)cc2C)=C1O` (stereo not drawn) [Example 77, 2-(2-(4-chloro-2-methylphenyl)cyclopropanecarbonyl)-3,5-dihydroxy-4,6,6-trimethylcyclohexa-2,4-dienone], the MIC was more than 40 µg/mL in assay [1], 7.4 µg/mL (≈ 20.5 µM) in assay [2] and more than 40 µg/mL in assay [3].

As to `CC1=C(O)C(C)(C)C(=O)C(C(=O)CCc2ccc(Oc3ccc(F)cc3)cc2)=C1O` [Example 78, 2-(3-(4-(4-fluorophenoxy)phenyl)propanoyl)-3,5-dihydroxy-4,6,6-trimethylcyclohexa-2,4-dienone], the MIC in assay [1] was more than 40 µg/mL; in assay [2] it was 6.5 µg/mL (≈ 15.8 µM); in assay [3] it was more than 40 µg/mL.

For `CCCC1=C(O)C(CCC)(CCC)C(=O)C(C(=O)C2CC2c2ccc(Cl)cc2)=C1O` (stereo not drawn) [Example 79, 2-(2-(4-chlorophenyl)cyclopropanecarbonyl)-3,5-dihydroxy-4,6,6-tripropylcyclohexa-2,4-dienone], the MIC in assay [1] stood at 0.61 µg/mL (≈ 1.42 µM); in assay [2], 0.15 µg/mL (≈ 0.348 µM); in assay [3] it was 0.27 µg/mL (≈ 0.626 µM).

Regarding `CCCC1=C(O)C(CCC)(CCC)C(=O)C(C(=O)C2CC2c2ccc(Cl)cc2C(F)(F)F)=C1O` (stereo not drawn) [Example 80, 2-(2-(4-chloro-2-(trifluoromethyl)phenyl)cyclopropanecarbonyl)-3,5-dihydroxy-4,6,6-tripropylcyclohexa-2,4-dienone], the MIC in assay [1] amounted to 0.42 µg/mL (≈ 0.842 µM); in assay [2], 0.33 µg/mL (≈ 0.661 µM); in assay [3], 0.14 µg/mL (≈ 0.281 µM).

In the case of `CCC1=C(O)C(CC)(CC)C(=O)C(C(=O)C2CC2c2ccc(Cl)cc2)=C1O` (stereo not drawn) [Example 81, 2-(2-(4-chlorophenyl)cyclopropanecarbonyl)-4,6,6-triethyl-3,5-dihydroxycyclohexa-2,4-dienone], the “MIC E. faecalis H37Rv” value in assay [1] (Mueller-Hinton II agar, 16 h at 37° C.) amounted to 11 µg/mL (≈ 28.3 µM). Further, the MIC in assay [2] is 2.2 µg/mL (≈ 5.66 µM); in assay [3], 4.5 µg/mL (≈ 11.6 µM).

Consider `CCC1=C(O)C(CC)(CC)C(=O)C(C(=O)C2CC2c2ccc(Cl)cc2C)=C1O` (stereo not drawn) [Example 82, 2-(2-(4-chloro-2-methylphenyl)cyclopropanecarbonyl)-4,6,6-triethyl-3,5-dihydroxycyclohexa-2,4-dienone], for which the MIC in assay [1] was found to be 12 µg/mL (≈ 29.8 µM); in assay [2] it was 1.2 µg/mL (≈ 2.98 µM); in assay [3], 3.6 µg/mL (≈ 8.93 µM).

On to `CC1=C(O)C(C)(C)C(=O)C(C(=O)C2CC2c2ccc(C(F)(F)F)cc2C(F)(F)F)=C1O` (stereo not drawn) [Example 83, 2-(2-(2,4-bis(trifluoromethyl)phenyl)cyclopropanecarbonyl)-3,5-dihydroxy-4,6,6-trimethylcyclohexa-2,4-dienone], for which the MIC was more than 40 µg/mL in assay [1], 2.4 µg/mL (≈ 5.35 µM) in assay [2] and 5 µg/mL (≈ 11.2 µM) in assay [3].

As for `CCC1=C(O)C(CC)(CC)C(=O)C(C(=O)C2CC2c2ccc(Cl)cc2C(F)(F)F)=C1O` (stereo not drawn) [Example 84, 2-(2-(4-chloro-2-(trifluoromethyl)phenyl)cyclopropanecarbonyl)-4,6,6-triethyl-3,5-dihydroxycyclohexa-2,4-dienone], the MIC was 2.1 µg/mL (≈ 4.6 µM) in assay [1], 0.44 µg/mL (≈ 0.963 µM) in assay [2] and 1.3 µg/mL (≈ 2.85 µM) in assay [3].
